Test results reported in ChEMBL document CHEMBL1201862, “PubChem BioAssay data set” (2004).
Calls of active or inactive are those of the source.

Experiments:
[1] = cytotoxicity toward NIH3T3 fibroblasts, dose response, counter-screen, cell-based, ATP luminescence, mouse fibroblasts (AID 2010); format: functional;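 also: cells exposed to compound for about 90 hours before reading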
[2] = inhibitors of intracellular T. cruzi replication, confirmation, NIH3T3 host cells, beta-gal luminescence (AID 2044); format: functional, cell-based;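 also: intracellular parasites grown in NIH/3T3 mouse fibroblasts as host cells; luminescent beta-galactosidase reporter signal from transgenic T. cruzi replicating inside host cells; inhibitors lower the luminescence signal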
[3] = off-target signal loss in HeLa-CEM21 co-culture – HeLa F-luc CTL cells, cherry-picked, counter-screen for HIV-1 Env fusion inhibitor project, dose response (AID 652040); format: functional, cell-based;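 also: potency for signal decrease marking cytotoxic or nonspecific inhibition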
[4] = inhibitors of clade B AD8 Env fusion, dose response, cell-based, cherry-pick (AID 652062); format: functional;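 also: luciferase signal from cell-cell fusion driven by HIV-1 clade B AD8 Env; potency is for inhibitors of fusion seen as a drop in luminescence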
[5] = HEp-2 cell cytotoxicity, dose response, cytotoxicity control for RSV inhibitor project, HTS (AID 2410); format: functional; settings: human respiratory syncytial virus
[6] = cells
[7] = biological target: T1, Bcl-2-related protein A1 (Mus musculus, UniProt Q07440); experiment: Bfl-1 binding inhibitors, SAR follow-up, biochemical, fluorescence polarization (AID 1070)
T1 sequence (Q07440 whole entry): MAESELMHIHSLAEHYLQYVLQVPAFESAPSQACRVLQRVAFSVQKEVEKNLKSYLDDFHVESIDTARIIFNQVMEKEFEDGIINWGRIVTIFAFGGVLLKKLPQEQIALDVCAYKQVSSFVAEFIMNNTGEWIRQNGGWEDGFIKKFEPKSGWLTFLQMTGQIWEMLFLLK

[8] = biological target: T1, Bcl-2-related protein A1; experiment: Bfl-1 inhibitors blocking BH3 peptide binding, confirmation, biochemical, TR-FRET, mouse Bfl-1 (AID 621);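 also: TR-FRET binding of GST-Bfl-1 to FITC-labelled Bid peptide via terbium antibody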
[9] = biological target: Glyceraldehyde-3-phosphate dehydrogenase (Homo sapiens, UniProt P04406)
[10] = biological target: T2, Protein Tat (Human immunodeficiency virus type 1 group M subtype B (isolate HXB2)(HIV-1), UniProt P04608); format: functional;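 also: tat binding to TAR RNA read out by fluorescence polarization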
T2 sequence (P04608 whole entry): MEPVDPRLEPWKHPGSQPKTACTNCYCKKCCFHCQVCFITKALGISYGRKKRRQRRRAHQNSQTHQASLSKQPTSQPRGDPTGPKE

[11] = biological target: T3, Rac GTPase-activating protein 1 (Homo sapiens, UniProt Q9H0H5); experiment: MgcRacGAP GTPase-activating activity inhibitors, confirmation, biochemical, ADP Hunter fluorescence, primary and confirmatory (AID 624330); format: functional
T3 sequence (Q9H0H5 whole entry): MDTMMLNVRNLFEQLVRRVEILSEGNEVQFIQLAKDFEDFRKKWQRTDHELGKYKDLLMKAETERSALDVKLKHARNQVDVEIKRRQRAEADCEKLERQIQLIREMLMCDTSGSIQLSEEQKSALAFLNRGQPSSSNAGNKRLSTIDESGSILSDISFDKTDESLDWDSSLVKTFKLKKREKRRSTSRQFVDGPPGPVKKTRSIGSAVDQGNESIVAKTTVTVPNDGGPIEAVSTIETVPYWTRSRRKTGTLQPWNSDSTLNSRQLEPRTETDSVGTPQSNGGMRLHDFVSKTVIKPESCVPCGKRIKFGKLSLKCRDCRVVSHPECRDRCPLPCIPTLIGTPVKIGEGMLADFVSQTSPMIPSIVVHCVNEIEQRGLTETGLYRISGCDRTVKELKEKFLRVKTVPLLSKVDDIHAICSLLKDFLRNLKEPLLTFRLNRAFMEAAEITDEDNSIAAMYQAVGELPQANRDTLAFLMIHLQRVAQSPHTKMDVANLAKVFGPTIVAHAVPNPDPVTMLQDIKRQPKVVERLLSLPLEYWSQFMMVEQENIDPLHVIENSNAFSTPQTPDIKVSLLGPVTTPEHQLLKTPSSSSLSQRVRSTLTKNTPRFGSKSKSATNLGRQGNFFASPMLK

[12] = biological target: FAD-linked sulfhydryl oxidase ALR (Homo sapiens, UniProt P55789); experiment: inhibitors of human ALR sulfhydryl oxidase, dose response, biochemical, H2O2 detection, luminescence, cherry-pick (AID 493248)
[13] = inhibitors of Vif binding to APOBEC3G peptide, primary screen, biochemical, TR-FRET, GST-Vif 1-94, biotin-A3G peptide, dose response retest (AID 1117319); format: functional;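 also: TR-FRET signal of purified GST-Vif binding a biotinylated A3G peptide; inhibitors lower the FRET signal by blocking Vif and A3G binding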
[14] = biological target: T4, Protein skinhead-1 (Caenorhabditis elegans, UniProt P34707); format: functional
T4 sequence (P34707 whole entry): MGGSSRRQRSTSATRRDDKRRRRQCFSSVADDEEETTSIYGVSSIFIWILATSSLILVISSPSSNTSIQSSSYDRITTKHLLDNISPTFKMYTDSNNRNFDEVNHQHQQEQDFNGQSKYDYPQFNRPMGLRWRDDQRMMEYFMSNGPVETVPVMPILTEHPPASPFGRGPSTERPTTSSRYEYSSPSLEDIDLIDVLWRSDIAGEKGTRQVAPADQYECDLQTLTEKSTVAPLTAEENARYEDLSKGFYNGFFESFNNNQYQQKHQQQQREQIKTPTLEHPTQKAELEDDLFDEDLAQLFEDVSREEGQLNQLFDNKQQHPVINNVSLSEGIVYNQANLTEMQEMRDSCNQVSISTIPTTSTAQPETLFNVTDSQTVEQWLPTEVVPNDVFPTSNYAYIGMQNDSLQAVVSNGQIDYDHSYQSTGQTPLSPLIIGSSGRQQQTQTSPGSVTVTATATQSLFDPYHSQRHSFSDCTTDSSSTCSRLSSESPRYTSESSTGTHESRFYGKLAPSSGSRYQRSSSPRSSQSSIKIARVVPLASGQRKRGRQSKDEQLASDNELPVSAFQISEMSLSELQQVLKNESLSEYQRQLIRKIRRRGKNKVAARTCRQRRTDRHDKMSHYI

[15] = biological target: T5, Streptokinase A (Streptococcus pyogenes serotype M1, UniProt P10520); experiment: S. pyogenes streptokinase expression inhibitors, potency, dose response, plasminogen activation absorbance, OD405 (AID 1914); format: functional, Streptococcus pyogenes M1 GAS;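 also: secreted streptokinase activity via plasminogen activation per viability signal from cell pellet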
T5 sequence (P10520 whole entry): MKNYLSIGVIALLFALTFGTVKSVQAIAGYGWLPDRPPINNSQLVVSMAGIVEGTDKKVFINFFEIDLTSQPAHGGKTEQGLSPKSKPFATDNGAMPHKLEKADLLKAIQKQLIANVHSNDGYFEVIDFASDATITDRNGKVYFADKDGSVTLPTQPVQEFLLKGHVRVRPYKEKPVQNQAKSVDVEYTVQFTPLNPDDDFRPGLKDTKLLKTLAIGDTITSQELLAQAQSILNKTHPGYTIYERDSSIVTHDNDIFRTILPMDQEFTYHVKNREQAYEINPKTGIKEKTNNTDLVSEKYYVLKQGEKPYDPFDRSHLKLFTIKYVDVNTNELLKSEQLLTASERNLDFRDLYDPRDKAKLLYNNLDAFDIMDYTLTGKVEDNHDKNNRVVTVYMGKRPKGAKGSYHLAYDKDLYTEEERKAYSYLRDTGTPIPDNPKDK

[16] = system: Streptococcus; experiment: Group A Streptococcus viability loss, dose response, counter-screen for streptokinase expression inhibitor project, luminescence, BacTiterGlo (AID 1915); format: functional, organism-based;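 also: potency for reduction of bacterial viability or growth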
[17] = system: Streptococcus sp. 'group A'; experiment: growth inhibition of control SK(-) GAS strain, dose response, counter-screen for streptokinase expression inhibitor project, luminescence, kanamycin, BacTiterGlo, confirmation (AID 1900); format: functional, organism-based
[18] = biological target: T6, Cytochrome P450 1A2 (Homo sapiens, UniProt P05177);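 also: PubChem cytochrome P450 panel assay, CYP1A2 panel member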
T6 sequence (P05177 whole entry): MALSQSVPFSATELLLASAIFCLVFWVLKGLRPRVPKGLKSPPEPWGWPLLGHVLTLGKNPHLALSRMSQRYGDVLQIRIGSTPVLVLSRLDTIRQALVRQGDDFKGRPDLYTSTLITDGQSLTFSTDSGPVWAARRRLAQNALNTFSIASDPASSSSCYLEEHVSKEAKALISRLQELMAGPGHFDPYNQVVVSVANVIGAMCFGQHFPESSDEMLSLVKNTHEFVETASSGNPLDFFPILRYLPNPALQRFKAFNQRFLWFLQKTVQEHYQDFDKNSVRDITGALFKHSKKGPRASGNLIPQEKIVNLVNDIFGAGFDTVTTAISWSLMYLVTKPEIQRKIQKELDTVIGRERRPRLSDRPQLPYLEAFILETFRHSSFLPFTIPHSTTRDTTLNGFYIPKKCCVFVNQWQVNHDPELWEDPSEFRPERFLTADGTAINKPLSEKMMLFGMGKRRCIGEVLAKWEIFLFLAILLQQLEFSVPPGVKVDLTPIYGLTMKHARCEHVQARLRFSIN

[19] = biological target: T7, Dual specificity protein phosphatase 6 (Rattus norvegicus, UniProt Q64346); experiment: MKP-3 phosphatase inhibitors, primary screen, biochemical, rat enzyme, in vitro (AID 425)
T7 sequence (Q64346 whole entry): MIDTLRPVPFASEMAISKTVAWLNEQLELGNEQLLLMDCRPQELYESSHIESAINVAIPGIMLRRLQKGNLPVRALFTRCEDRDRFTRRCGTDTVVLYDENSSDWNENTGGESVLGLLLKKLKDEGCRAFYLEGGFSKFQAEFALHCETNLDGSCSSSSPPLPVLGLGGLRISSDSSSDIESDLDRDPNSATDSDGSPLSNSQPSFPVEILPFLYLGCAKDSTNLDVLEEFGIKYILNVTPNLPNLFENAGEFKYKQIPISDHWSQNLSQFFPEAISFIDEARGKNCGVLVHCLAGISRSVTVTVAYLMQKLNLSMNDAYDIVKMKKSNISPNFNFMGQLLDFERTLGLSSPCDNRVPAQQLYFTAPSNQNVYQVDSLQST

[20] = THP-1 cell cytotoxicity, dose response, cytotoxicity control for Vif-APOBEC3G degradation inhibitor project, THP-1 cells (AID 1117359); format: functional; settings: Human immunodeficiency virus 1, THP-1
[21] = ZM109 Env clade C HIV-1 fusion inhibitors, dose response, HeLa effector, CEM target cells, luciferase, cherry-pick (AID 652058); format: functional, cell-based
[22] = inhibitors of HIV Env-driven cell fusion, dose response, cherry-pick (AID 652057); format: functional, cell-based
[23] = biological target: T8, Mannose-6-phosphate isomerase (Homo sapiens, UniProt P34949); experiment: human PMI inhibitors, high substrate, primary screen, biochemical, fluorescence intensity, high mannose 6-phosphate (AID 1220)
T8 sequence (P34949 whole entry): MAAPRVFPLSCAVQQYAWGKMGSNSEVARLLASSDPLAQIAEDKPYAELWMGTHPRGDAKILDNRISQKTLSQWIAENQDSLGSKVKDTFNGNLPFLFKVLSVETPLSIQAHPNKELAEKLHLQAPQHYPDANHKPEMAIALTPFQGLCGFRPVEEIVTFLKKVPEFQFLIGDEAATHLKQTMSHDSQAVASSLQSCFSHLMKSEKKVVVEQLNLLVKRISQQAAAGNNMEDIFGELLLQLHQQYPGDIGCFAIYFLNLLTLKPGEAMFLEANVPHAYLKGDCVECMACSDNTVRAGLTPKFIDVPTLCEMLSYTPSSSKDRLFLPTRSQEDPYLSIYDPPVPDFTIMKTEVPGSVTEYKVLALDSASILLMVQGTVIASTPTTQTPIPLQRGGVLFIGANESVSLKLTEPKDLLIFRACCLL

[24] = P. falciparum Dd2 growth inhibitors, dose response, SYBR Green, cherry-picked samples (AID 1159567); format: functional, cell-based

Glyceraldehyde-3-phosphate dehydrogenase, sequence (P04406 whole entry): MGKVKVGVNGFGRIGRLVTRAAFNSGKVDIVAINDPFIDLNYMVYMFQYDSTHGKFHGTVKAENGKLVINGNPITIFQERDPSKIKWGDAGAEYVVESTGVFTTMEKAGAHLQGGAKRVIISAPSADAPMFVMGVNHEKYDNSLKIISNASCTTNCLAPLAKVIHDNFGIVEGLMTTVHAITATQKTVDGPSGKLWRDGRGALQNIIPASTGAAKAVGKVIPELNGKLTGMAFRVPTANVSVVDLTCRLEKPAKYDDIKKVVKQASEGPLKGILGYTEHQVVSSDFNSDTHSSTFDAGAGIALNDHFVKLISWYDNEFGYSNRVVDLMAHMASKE
FAD-linked sulfhydryl oxidase ALR, sequence (P55789 whole entry): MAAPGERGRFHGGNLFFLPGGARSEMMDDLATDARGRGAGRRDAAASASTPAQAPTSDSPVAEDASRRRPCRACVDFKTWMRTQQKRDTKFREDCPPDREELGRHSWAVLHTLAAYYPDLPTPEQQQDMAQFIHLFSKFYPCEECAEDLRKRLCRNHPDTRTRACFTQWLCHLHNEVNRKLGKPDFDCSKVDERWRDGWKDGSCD

## CC(=O)c1ccc(S(=O)(=O)N2CCN(c3nc4c(C)c(C)ccc4cc3C#N)CC2)cc1
[1]
  EC50: > 60 µM (not active)
[2]
  EC50: 1.9 µM (active)
[3]
  AC50: 10.3 µM (active)
[4]
  AC50: 11.2 µM (active)

## COC(=O)C1=C(c2ccc(F)cc2F)C[C@@H]2CC[C@H]1N2C(=O)NCCOc1ccccc1Cl
[5]
  CC50: 34.5 µM (active)
[6]
  IC50: 13.9 µM (active)

## CS(=O)(=O)c1nc(-c2ccccc2)cc(-c2ccccc2)n1
[7]
  IC50: > 100 µM (not active)
[8]
  IC50: > 100 µM (not active)
[9]
  IC50: > 100 µM (not active)

## Cc1cccc(N2C(=O)C(Cl)=C(N3CCN(CCO)CC3)C2=O)c1
[7]
  IC50: 12.3 µM (active)
[8]
  IC50: 11.5 µM (active)
[9]
  IC50: > 100 µM (not active)

## CC(=O)N1CCN(c2ccc(NCc3ccccc3)cc2)CC1
[10]
  IC50: 13.7 µM (inconclusive)
[11]
  IC50: 10.5 µM (active)
[12]
  AC50: 0.57 µM (active)
[13]
  IC50: > 50.5 µM (active)
[14]
  IC50: > 100 µM (inactive)

## Cc1ccc2c(C)c(C(=O)Nc3ccc(S(=O)(=O)Nc4onc(C)c4C)cc3)oc2c1
[5]
  CC50: 24.4 µM (active)
[6]
  IC50: 24.7 µM (active)
[15]
  EC50: > 150 µM (not active)
[16]
  EC50: > 150 µM (not active)
[17]
  EC50: 23.8 µM (active)

## COc1ccc(S(=O)(=O)N2CCC(NC(=O)Nc3ccc(C)cc3)CC2)cc1
[18]
  AC50: 31.6 µM (inconclusive)
[19]
  IC50: > 100 µM (not active)

## O=C1C(Cl)=C(N2CCN(c3ncccn3)CC2)C(=O)N1c1ccc(Cl)c(Cl)c1
[7]
  IC50: 1.9 µM (active)
[8]
  IC50: 2.46 µM (active)
[9]
  IC50: > 100 µM (not active)

## COc1ccc(C(=O)Cn2c(=N)n(C)c3ccccc32)cc1
[13]
  IC50: > 100 µM (active)
[20]
  CC50: > 40 µM (active)

## CN(C)CCn1c(=O)n(-c2cccc(Cl)c2)c(=O)c2c3c(sc21)CCCCC3
[21]
  AC50: 0.997 µM (active)
[3]
  AC50: 1.96 µM (active)
[22]
  AC50: 0.786 µM (active)
[4]
  AC50: 4.37 µM (active)

## COCCn1c(-c2ccccc2Cl)nc2c(c(=O)c3ccccc3n2C)c1=O
[6]
  IC50: 14.6 µM (active)

## Cc1cccc(Oc2c([N+](=O)[O-])c(=O)n(C)c3ccccc23)c1
[23]
  IC50: > 50 µM (not active)

## O=C1C(Cl)=C(Nc2ccccc2)C(=O)N1c1ccc(Cl)c(Cl)c1
[7]
  IC50: > 100 µM (not active)
[8]
  IC50: > 100 µM (not active)
[9]
  IC50: > 100 µM (not active)

## COC(=O)[C@]1(C)N[C@H](CN(C)S(=O)(=O)c2ccc(-c3ccccc3)cc2)[C@@H]2C(=O)N(Cc3ccccc3)C(=O)[C@@H]21
[21]
  AC50: 9.4 µM (active)
[3]
  AC50: 5.77 µM (active)
[22]
  AC50: 3.7 µM (active)
[4]
  AC50: 11.7 µM (active)

## CC(C)n1/c(=N/C(=O)c2ccco2)c(C#N)cc2c(=O)n3ccccc3cc21
[13]
  IC50: > 100 µM (active)

## CCS(=O)(=O)N1[C@H](CO)[C@H](c2ccc(C#Cc3ccccc3F)cc2)[C@@H]1C#N
[24]
  AC50: 4.23 µM (active)
